One may read the IC50 as the point on the concentration scale where inhibition reaches its midpoint. By MIC is commonly meant the lowest concentration that inhibits growth of the organism.

≈ marks a conversion by molar mass, not a printed value.

What all share (type): cell-based
In one assay the test system is human colon cancer HT-29. The experiment in a line: Antineoplastic activity in vitro, method of Skehan et al. (1990), HT-29. Particulars: HT29 cells. The protocol: (§1) The antineoplastic activities of xenomins have been determined in vitro in cell cultures of human colon cancer HT-29, breast cancer MCF-7 and cervical cancer Hela. The tests were carried out using the method described by Skehan et al. (1990).

Assay [1] concerns Staphylococcus aureus ATCC 29213. The assay is described as follows: MIC by standard dilution method (NCCLS 1990), Staphylococcus aureus ATCC 29213. Particulars: ATCC29213, 35° C., 24 h incubation. The protocol: (§2) To determine minimum inhibitory concentration (MIC) of the xenomins, the standard dilution method was used as outlined by The National Committee for Clinical Laboratory Standards (1990) for testing antibiotics. The tests were coducted at 35° C. and the MICs were determined after 24 h incubation.

The test system of the next assay is cervical cancer Hela. The assay is described as follows: Antineoplastic activity in vitro, method of Skehan et al. (1990), Hela. To be noted: Homo sapiens, Hela cells. As to the method: as §1
For assay [2], the system named is Cryptococcus neoformans ATCC14117. The assay is described as follows: MIC by standard dilution method (NCCLS 1990), Cryptococcus neoformans ATCC14117. To be noted: 35° C., 24 h incubation. The protocol:
as §2

The next assay has as its system Bacillus subtilis. The assay is described as follows: MIC by standard dilution method (NCCLS 1990), Bacillus subtilis. To be noted: 35° C., 24 h incubation. As to the method:
as §2

For the next assay, the system named is breast cancer MCF-7. The assay is described as follows: Antineoplastic activity in vitro, method of Skehan et al. (1990), MCF-7. To be noted: Homo sapiens, MCF7, MCF-7 cells. As to the method:
as §1

Assay [3] deals with Candida tropicalis CBS 94. The assay is described as follows: MIC by standard dilution method (NCCLS 1990), Candida tropicalis CBS 94. Particulars: CBS94, 35° C., 24 h incubation. As to the method:
as §2

The test system of a further assay is S. aureus 0017. The assay is described as follows: MIC by standard dilution method (NCCLS 1990), S. aureus 0017 (methicillin-resistant clinical isolate). To be noted: Staphylococcus aureus; S. aureus 0017, clinical isolate of methicillin-resistant strain; 35° C., 24 h incubation. As to the method: as §2
(§3) *clinical isolates of methicillinresistant strain.

The test system of another assay is S. aureus 0012. The experiment in a line: MIC by standard dilution method (NCCLS 1990), S. aureus 0012 (methicillin-resistant clinical isolate). To be noted: Staphylococcus aureus; S. aureus 0012, clinical isolate of methicillin-resistant strain; 35° C., 24 h incubation. As to the method:
as §2, §3

Consider `CCCCCC(=O)Nc1c2[s+]([O-])scc-2n(C)c1=O` (single isomer, unassigned) [Xenomin 1], for which the figures for the IC50 in the assay with human colon cancer HT-29, in the assay with cervical cancer Hela and in the assay with breast cancer MCF-7 were 0.14 µg/mL (≈ 0.466 µM), 0.24 µg/mL (≈ 0.799 µM) and 1.37 µg/mL (≈ 4.56 µM), respectively. In addition, the minimum inhibitory concentration (MIC) in assay [1] was 20 µg/mL (≈ 66.6 µM); in [2], 13 µg/mL (≈ 43.3 µM); against Bacillus subtilis, 5 µg/mL (≈ 16.6 µM); in [3] it was 100 µg/mL (≈ 333 µM); in the assay with S. aureus 0017 it was 10 µg/mL (≈ 33.3 µM); with S. aureus 0012, 10 µg/mL (≈ 33.3 µM).
On to `CC(C)CCCC(=O)Nc1c2[s+]([O-])scc-2n(C)c1=O` (single isomer, unassigned) [Xenomin 2], for which the results for the IC50 with human colon cancer HT-29, in the assay on cervical cancer Hela and in the assay on breast cancer MCF-7 were 0.34 µg/mL (≈ 1.08 µM), 0.65 µg/mL (≈ 2.07 µM) and 1.74 µg/mL (≈ 5.53 µM), respectively. For the same compound, the minimal inhibitory concentration (MIC) in assay [1] was 41 µg/mL (≈ 130 µM); in assay [2], 25 µg/mL (≈ 79.5 µM); in the assay with Bacillus subtilis it was 41 µg/mL (≈ 130 µM); in [3] it was above 100 µg/mL; in the assay on S. aureus 0017 it was 41 µg/mL (≈ 130 µM); in the assay on S. aureus 0012 it was 41 µg/mL (≈ 130 µM).
